Measured values taken from paper PMC7024221, “The Application of Reversible Intramolecular Sulfonamide Ligation to Modulate Reactivity in Organometallic Ruthenium(II) Diamine Complexes” (Molecules, 2020).
Entries after “also recorded” stand apart in the source; their conditions may differ. Read-outs that look alike come from different tables or passages of the source. Marks after values point to notes of the source that are not given here.

What was measured:
[1] = NMR binding study with the model ligand L-histidine; conditions: 1 eq. L-histidine, 2.46 mM complex, phosphate buffer 0.2 M, 310 K, 0.1 M NaCl
Procedure: (§1) The coordination of a metallodrug, via the metal ion, to biomacromolecular targets is a major mechanism by which biological activity is exerted in many of these complexes. To evaluate the ability of intramolecular sulfonamide ligation to regulate the availability of a coordination site at the ruthenium ion in this family of complexes, and therefore control ligation of endogenous ligands to the complex, binding studies were performed between 4 (and the control compound 6) and the model ligands L-histidine and 5′-GMP. 4 and 6 were incubated with 1 eq. of 5′-GMP or L-histidine (2.46 mM complex, phosphate buffer (0.2 M), 310 K, 0.1 M NaCl) for 144 h at pD values of 7.5 and 6.5 in each case. Incubations were monitored by ^1H and ^19F NMR. […] The degree of L-histidine coordination was not able to be quantified using ^1H NMR due to hydrogen-deuterium exchange which occurs at the histidine C2 proton and low intensity and overlapping peaks, but was more pronounced at pD 7.5 than pD 6.5. […]
(§2) The reactivity of 4 and 6 towards 5′-GMP/L-histidine was assessed by mixing stock solutions of the complex and ligand in phosphate buffer (both in D2O, 0.1 M NaCl) to yield 1:1 solutions with each component present at a concentration of 2.46 mM (200 mM buffer concentration, 0.1 M NaCl). […] Samples were incubated at 310 K and monitored using ^1H and ^19F NMR. […]

5′-GMP = assay: NMR binding study with the model ligand 5′-GMP; conditions: 1 eq. 5′-GMP, 2.46 mM complex, phosphate buffer 0.2 M, 310 K, 0.1 M NaCl
Procedure: as §1, §2

[2] = Conversion of chelate form to open form in citrate/phosphate buffer, 19F NMR; type: physicochemical; conditions: 310 K
Procedure: To gain further insight into the reactivity of 4 the conversion of the chelate form to open form of the complex was probed in three different citrate/phosphate buffer solutions at 310 K (Figure 9). Aqueous solutions of 4 at pD 7.61 (where the chelate form of the complex exists exclusively) were diluted into citrate/phosphate buffer to yield solutions at pD 4.12, 4.91 and 5.96 (2.46 mM complex, 0.1 M NaCl). The conversion of the chelate form to the open form was monitored by ^19F NMR spectroscopy over 16 h. Under the most acidic conditions (pD 4.12) equilibrium was reached within the 16 h experiment duration, with 93% of 4 converting to the open form.
The conversion of the chelate-form of 4 to the activated open-form was investigated by dilution of a stock solution of 4 (D2O, 0.1 M NaCl) into citrate/phosphate buffer solutions (D2O, 0.1 M NaCl) at pD 4.12, 4.91 and 5.96 to yield solutions at a final complex concentration of 2.46 mM. The samples were maintained at 310 K within the NMR spectrometer and ^19F NMR spectra were recorded every 15 min for 16 h. The ratio of the –CF3 signals corresponding to the open- and chelate-forms of the complex were determined to allow a plot of % open-form versus time. The fitting of the equation y = C + A(1−e^−kx) (C-offset from zero; A-amplitude of the curve) to each set of experimental data yielded the half-life for the fraction of the chelate-form of 4 which is converted to the open-form.

HT-29 cell line = assay: MTT cytotoxicity assay; type: cell-based, human; conditions: HT-29, concentrations up to 100 µM, 72 h
Procedure: Having established the ability of 4 to coordinate to biologically relevant ligands in a pH-dependent manner we evaluated the cytotoxicity of 4 (and 6 as a control unable to form an intramolecular chelate) against the HT-29 cell line using the MTT assay. In light of the potential non-covalent interaction of 4 with protein as described earlier these assays were performed for both 4 and 6 using media containing 10% and 1% fetal calf serum to assess the effect of serum concentration on cytotoxicity. […] It is clear that while 6 is readily able to coordinate to 5′-GMP and L-histidine, and presumably forms biomacromolecular adducts in cell culture experiments, the nature and/or level of adducts formed is not detrimental to HT-29 cell viability. The ability of 4 to form biomacromolecular adducts in cell culture conditions will be less than that of 6 due to substantial intramolecular sulfonamide ligation under these pH conditions. […]
HT-29 (human colon adenocarcinoma) cells were counted and the concentration adjusted to 3 × 10^4 cells/.mL 100 µL of the cell suspension was dispensed into the wells of a 96 well plate. […] The results were read on a plate reader (Biotek ELX800 Universal Microplate Reader) at 570 nm. The viability of the cells is expressed as % of cell survival of each dilution against the “cells only” control taken as 100% survival. […]

[3] = Solution stability (NaCl, arene loss on standing of NMR solution); type: physicochemical; conditions: standing for extended periods of time (>24 h)
Procedure: A total of six half-sandwich ruthenium(II) arene complexes were synthesized for evaluation in this study (Figure 2). [Ru(η^6-C6H5CH2CH2NHR)(en)(Cl)]PF6 (R = Ms (1), tresyl (Tr) (2), Tf (3) or acetyl (6)) and [Ru(η^6-C6H5(CH2)3CH2NHTf)(en)(Cl)]PF6 (5) were prepared via reaction of the respective [RuCl2(η^6-C6H5(CH2)nCH2NHR)]2 (R = acetyl, Ms, Tf or Tr) complex with ethylenediamine followed by the addition of NH4PF6 then crystallization of the product by concentration of the methanol solution or via vapor diffusion with diethyl ether. [Ru(η^6:κ^1-C6H5(CH2)2CH2NTf)(en)]PF6 (4) was prepared via the reaction of [RuCl2(η^6-C6H5(CH2)2CH2NHTf)]2 with ethylenediamine then treatment with silver carbonate and triethylamine, followed by addition of NH4PF6 and precipitation of the product by concentration and cooling. All complexes are soluble in water (≥5 mM) and stable in the presence of NaCl (100 mM). All complexes were characterized by ^1H, ^13C and ^19F NMR spectroscopy, high resolution mass spectrometry and elemental analysis.
During these studies it was observed that for 1–3 arene-ruthenium cleavage began to occur on standing of the NMR solution for even relatively short periods of time (>1 h) (Figures S12–S14).

bovine serum albumin = bovine serum albumin (Bos taurus, UniProt P02769); assay: Incubation with bovine serum albumin monitored by 1H and 19F NMR; conditions: 72 h, 2.46 mM complex, 0.5 mM BSA, 310 K, pD 7.4
[4] = pH titration by 1H/19F NMR of open and chelate forms (apparent pKa); type: physicochemical; conditions: 2.46 mM complex, D2O, 0.1 M NaCl; for Apparent pKa: Henderson-Hasselbalch fit of % open form versus pD
Procedure: The ability of the tethered sulfonamide functionality to reversibly ligate to the ruthenium atom in a pH-dependent manner, forming an intramolecular chelate, was examined by recording ^1H NMR spectra of 1–5 (and ^19F NMR spectra for 2–5) (2.46 mM complex, D2O, […], 0.1 M NaCl) as a function of pH. Within these spectra two unique sets of signals were observed, the relative proportion of these being pH-dependent, that were assigned to the open and chelate forms of the complexes (Figures S12–S15). Plotting the percentage of open form of the complex, calculated from the ratio of selected ligand signals corresponding to the open and chelate forms of the complexes, versus pD yielded sigmoidal curves in each case and apparent pKa values for 1–5 (Table 1) were determined by fitting of the Henderson-Hasselbalch equation to the data (Figure 7 and Figure 8).
pH titrations of 1–6 and [Ru(η^6-C6H5CH2CH2NHTr)(C2O4)(H2O)] were conducted by adjustment of the pD of solutions of the complexes (2.46 mM, 295 K, 0.1 M NaCl) in D2O through addition of 1–5 µL aliquots of NaOD (3.6 wt.%) and DCl (1.8 wt.%) solutions in D2O. Following pD adjustment the solutions were left to equilibrate (for 1–6 this was up to 36 h) then the ^1H and ^19F spectra of each were recorded. The ratio of selected ligand signals (for example –CH3 for 1, arene resonances for 2, –CF3 for 3–5) corresponding to the open- and chelate-forms of the complex were determined for each pD value and enabled a plot of % open-form versus pD. pKa values were calculated through fitting of the Henderson-Hasselbalch equation to the data.

[5] = cited from earlier work
[6] = design: method as in doi:10.1021/acs.organomet.7b00868; conditions: R = Ms, Tf; reported previously; cited from earlier work

bovine serum albumin, sequence (P02769 25-607): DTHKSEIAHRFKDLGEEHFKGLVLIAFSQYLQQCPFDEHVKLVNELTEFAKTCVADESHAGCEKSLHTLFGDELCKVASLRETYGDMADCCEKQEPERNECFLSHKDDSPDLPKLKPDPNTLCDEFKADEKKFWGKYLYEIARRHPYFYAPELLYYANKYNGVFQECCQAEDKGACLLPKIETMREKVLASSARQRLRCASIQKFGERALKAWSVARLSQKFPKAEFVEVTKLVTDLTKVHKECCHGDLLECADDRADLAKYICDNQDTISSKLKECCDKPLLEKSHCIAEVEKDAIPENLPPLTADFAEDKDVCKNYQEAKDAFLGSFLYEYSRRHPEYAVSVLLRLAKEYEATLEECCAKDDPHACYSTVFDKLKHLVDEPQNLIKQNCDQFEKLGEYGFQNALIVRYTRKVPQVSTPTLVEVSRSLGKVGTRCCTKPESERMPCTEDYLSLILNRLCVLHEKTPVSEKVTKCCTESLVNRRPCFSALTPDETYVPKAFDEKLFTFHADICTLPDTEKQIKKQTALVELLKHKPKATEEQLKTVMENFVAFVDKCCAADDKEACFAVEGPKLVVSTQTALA

With “[Ru(η^6:κ^1-C6H5(CH2)2CH2NTf)(en)]PF6 [Complex 4]” the “Coordination of L-histidine to the complex” value ([1]; pD 6.5, 144 h) was “lack of reactivity; also recorded: No coordination”, the “Coordination of L-histidine to the complex” value ([1]; pD 7.5, 144 h) was “lack of reactivity; also recorded: no coordination” and the “5′-GMP coordinated to the complex” value (5′-GMP; pD 6.5, 144 h) was 16 ± 1.6%. For the same molecule, the “5′-GMP coordinated to the complex” value (5′-GMP; pD 7.5, 144 h) was “no coordination”, the “Fraction converted to the open form at equilibrium” value ([2]; pD 4.12, equilibrium reached within 16 h, 2.46 mM complex, 0.1 M NaCl) was 93% and the “Open form present at equilibrium (from data fitting)” value ([2]; pD 4.91, equilibrium not reached within 16 h) was 61%. The “Open form present at equilibrium (from data fitting)” value ([2]; pD 5.96, equilibrium not reached within 16 h) was 24%, the “Inhibition of cell growth (MTT)” value (HT-29 cell line; media with 1% fetal calf serum) was “no significant inhibition of cell growth” and the “Inhibition of cell growth (MTT)” value (HT-29 cell line; media with 10% fetal calf serum) was “no significant inhibition of cell growth”. The “Arene loss on standing of the NMR solution” value [3] was “not observed”, the “Non-covalent interaction with bovine serum albumin (1H NMR signals broader and slightly shifted)” value (bovine serum albumin) was “non-covalent interactions between 4 and the protein may be occurring” and the “Reactivity (covalent interaction) towards bovine serum albumin” value (bovine serum albumin; phosphate buffer 0.2 M, 0.1 M NaCl) was “lack of reactivity; also recorded: no covalent interaction”. The “Apparent pKa” value [4] was 4.82.

For “cis-[PtCl(Me2N(CH2)2PPh2-N,P)(Me2N(CH2)2PPh2-P)]Cl”, the “pKa (ring-open/ring-closed equilibrium, pH titrations)” value [5] is given as 6.9.

For [Ru(η^6-C6H5CH2CH2NHMs)(C2O4)(H2O)], the “Apparent pKa for the Analogous [Ru(η^6-C6H5CH2CH2NHR)(C2O4)(H2O)] Complex” value (“Apparent pKa for the Analogous” for short) [6] is given as 6.65 ^‡.

In the case of [Ru(η^6-C6H5CH2CH2NHTr)(C2O4)(H2O)], the “Apparent pKa for the Analogous” value ([4]; R = Tr, 295 K) is reported as 5.75.

For “[Ru(η^6-C6H5(CH2)3CH2NHTf)(en)(Cl)]PF6 [Complex 5]”, the “Arene loss on standing of the NMR solution” value [3] was “not observed” and the “Apparent pKa” value [4] was 8.00.

For `N[C@@H](Cc1c[nH]cn1)C(=O)O` [L-histidine], the “side chain pKa” value ([5]; imidazole) is given as 6.07.

In the case of [Ru(η^6-C6H5CH2CH2NHTf)(C2O4)(H2O)], the “Apparent pKa for the Analogous” value [6] is listed as 4.05 ^‡.

For `Nc1nc2c(ncn2[C@@H]2O[C@H](COP(=O)([O-])[O-])[C@@H](O)[C@H]2O)c(=O)[nH]1.[Na+].[Na+]` [5′-GMP, guanosine 5′-monophosphate disodium salt], the “pKa of the N7 position” value [5] is given as 2.57.
